According to BigSolDB 2.1:

CS(=O)(=O)c1ccc([C@@H](O)[C@@H](CF)NC(=O)C(Cl)Cl)cc1
Settings	solubility (mole fraction)
in THF, 279.65 K	0.0293
in THF, 284.55 K	0.0317
in THF, 289.35 K	0.0342
in THF, 294.5 K	0.0374
in THF, 297.65 K	0.0398
in acetone, 279.25 K	0.0261
in acetone, 284.35 K	0.0294
in acetone, 289.1 K	0.0327
in acetone, 294.45 K	0.0368
in acetone, 297.75 K	0.0396
in ethanol, 278.55 K	0.00126
in ethanol, 283.45 K	0.00153
in ethanol, 288.8 K	0.00212
in ethanol, 293.7 K	0.00259
in ethanol, 298.45 K	0.00315
in methanol, 278.55 K	0.00408
in methanol, 283.5 K	0.00488
in methanol, 288.85 K	0.00598
in methanol, 293.8 K	0.00724
in methanol, 298.65 K	0.00878
in n-propanol, 278.35 K	0.0008
in n-propanol, 284.05 K	0.00106
in n-propanol, 289 K	0.00134
in n-propanol, 293.5 K	0.00165
in n-propanol, 298.65 K	0.00211
in water, 278.8 K	2.48e-05
in water, 283.85 K	2.86e-05
in water, 289.1 K	3.62e-05
in water, 293.95 K	4.64e-05
in water, 298.7 K	5.49e-05
